Columns and labels:
[1] = target: 5-hydroxytryptamine receptor 7 (Homo sapiens, UniProt P34969); assay: biochemical; format: cell-based, CHO-K1
[2] = target: 5-hydroxytryptamine receptor 6 (Homo sapiens, UniProt P50406); assay: biochemical
[3] = target: hERG (KCNH2) potassium channel (Homo sapiens, UniProt Q12809); assay: in vitro; details: CHO cells expressing human cloned ERG
D(2) dopamine receptor = D(2) dopamine receptor (Homo sapiens, UniProt P14416); assay: biochemical
[4] = target: 5-hydroxytryptamine receptor 2A (Homo sapiens, UniProt P28223); assay: biochemical; format: cell-based, CHO-K1
[5] = target: T1, Muscarinic acetylcholine receptor M1 (Homo sapiens) (UniProt P11229); assay: Displacement of [3H]pirenzepine from human recombinant M1 receptor expressed in CHO cells at 1 uM; format: cell-based
T1 sequence (whole entry): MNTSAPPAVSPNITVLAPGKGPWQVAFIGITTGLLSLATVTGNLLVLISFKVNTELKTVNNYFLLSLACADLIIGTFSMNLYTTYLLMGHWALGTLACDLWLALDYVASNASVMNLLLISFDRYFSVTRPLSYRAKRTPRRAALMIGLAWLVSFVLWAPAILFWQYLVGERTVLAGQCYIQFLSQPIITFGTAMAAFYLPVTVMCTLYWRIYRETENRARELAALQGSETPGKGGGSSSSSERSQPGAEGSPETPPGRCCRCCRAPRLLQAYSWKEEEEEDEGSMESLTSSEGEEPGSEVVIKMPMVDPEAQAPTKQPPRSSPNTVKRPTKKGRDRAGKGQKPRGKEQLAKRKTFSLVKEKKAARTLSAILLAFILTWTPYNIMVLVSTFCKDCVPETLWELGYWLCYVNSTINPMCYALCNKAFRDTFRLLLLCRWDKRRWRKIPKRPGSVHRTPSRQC

Sequence of 5-hydroxytryptamine receptor 6 (P50406 whole entry): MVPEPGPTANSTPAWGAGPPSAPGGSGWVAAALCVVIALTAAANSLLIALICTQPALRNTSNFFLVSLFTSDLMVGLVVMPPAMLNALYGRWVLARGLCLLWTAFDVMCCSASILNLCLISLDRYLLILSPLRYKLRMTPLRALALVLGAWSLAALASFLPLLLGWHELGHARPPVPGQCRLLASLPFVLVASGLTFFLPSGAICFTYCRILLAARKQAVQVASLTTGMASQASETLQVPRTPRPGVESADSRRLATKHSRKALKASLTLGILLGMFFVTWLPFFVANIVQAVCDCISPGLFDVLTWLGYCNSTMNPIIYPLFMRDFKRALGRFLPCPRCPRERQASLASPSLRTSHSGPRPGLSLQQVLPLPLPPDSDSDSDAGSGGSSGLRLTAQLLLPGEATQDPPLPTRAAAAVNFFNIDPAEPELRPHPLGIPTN
Sequence of 5-hydroxytryptamine receptor 7 (P34969 whole entry): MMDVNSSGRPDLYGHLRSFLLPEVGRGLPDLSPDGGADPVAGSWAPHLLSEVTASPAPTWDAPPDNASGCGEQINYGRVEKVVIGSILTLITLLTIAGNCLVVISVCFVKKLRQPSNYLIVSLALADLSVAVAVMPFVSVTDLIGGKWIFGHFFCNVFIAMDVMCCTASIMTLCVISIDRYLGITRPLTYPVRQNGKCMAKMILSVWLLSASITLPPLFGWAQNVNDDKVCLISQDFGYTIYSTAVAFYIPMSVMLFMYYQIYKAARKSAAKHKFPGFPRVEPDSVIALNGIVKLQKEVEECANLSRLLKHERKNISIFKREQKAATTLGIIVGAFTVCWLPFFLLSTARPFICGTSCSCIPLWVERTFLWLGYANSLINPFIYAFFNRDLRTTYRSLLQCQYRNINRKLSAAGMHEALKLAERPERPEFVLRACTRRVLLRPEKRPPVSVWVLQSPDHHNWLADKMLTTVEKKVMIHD
Sequence of D(2) dopamine receptor (P14416 whole entry): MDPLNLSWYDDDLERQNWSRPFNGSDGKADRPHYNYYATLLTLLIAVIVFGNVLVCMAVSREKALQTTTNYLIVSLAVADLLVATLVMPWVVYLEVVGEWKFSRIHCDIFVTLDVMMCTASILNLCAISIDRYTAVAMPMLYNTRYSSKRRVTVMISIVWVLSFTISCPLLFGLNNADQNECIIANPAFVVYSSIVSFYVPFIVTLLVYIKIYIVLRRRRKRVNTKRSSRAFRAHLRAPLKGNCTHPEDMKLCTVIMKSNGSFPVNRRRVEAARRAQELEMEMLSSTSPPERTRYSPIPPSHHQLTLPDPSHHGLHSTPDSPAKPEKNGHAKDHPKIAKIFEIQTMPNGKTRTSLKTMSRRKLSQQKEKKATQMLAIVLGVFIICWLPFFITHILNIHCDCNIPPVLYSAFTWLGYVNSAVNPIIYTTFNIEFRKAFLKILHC
Sequence of 5-hydroxytryptamine receptor 2A (P28223 whole entry): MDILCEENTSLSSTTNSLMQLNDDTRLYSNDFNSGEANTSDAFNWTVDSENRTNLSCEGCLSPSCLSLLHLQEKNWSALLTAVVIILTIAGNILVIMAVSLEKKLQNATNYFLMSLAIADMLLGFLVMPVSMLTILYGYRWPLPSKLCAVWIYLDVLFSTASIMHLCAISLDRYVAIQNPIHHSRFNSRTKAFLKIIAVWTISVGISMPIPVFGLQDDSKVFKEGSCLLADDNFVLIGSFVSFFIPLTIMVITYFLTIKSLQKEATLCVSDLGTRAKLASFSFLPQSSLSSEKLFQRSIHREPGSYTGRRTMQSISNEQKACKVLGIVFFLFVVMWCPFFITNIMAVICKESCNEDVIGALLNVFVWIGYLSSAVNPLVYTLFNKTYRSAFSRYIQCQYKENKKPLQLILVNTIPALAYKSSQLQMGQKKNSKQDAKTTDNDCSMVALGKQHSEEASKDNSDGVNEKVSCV
Sequence of hERG (KCNH2) potassium channel (Q12809 whole entry): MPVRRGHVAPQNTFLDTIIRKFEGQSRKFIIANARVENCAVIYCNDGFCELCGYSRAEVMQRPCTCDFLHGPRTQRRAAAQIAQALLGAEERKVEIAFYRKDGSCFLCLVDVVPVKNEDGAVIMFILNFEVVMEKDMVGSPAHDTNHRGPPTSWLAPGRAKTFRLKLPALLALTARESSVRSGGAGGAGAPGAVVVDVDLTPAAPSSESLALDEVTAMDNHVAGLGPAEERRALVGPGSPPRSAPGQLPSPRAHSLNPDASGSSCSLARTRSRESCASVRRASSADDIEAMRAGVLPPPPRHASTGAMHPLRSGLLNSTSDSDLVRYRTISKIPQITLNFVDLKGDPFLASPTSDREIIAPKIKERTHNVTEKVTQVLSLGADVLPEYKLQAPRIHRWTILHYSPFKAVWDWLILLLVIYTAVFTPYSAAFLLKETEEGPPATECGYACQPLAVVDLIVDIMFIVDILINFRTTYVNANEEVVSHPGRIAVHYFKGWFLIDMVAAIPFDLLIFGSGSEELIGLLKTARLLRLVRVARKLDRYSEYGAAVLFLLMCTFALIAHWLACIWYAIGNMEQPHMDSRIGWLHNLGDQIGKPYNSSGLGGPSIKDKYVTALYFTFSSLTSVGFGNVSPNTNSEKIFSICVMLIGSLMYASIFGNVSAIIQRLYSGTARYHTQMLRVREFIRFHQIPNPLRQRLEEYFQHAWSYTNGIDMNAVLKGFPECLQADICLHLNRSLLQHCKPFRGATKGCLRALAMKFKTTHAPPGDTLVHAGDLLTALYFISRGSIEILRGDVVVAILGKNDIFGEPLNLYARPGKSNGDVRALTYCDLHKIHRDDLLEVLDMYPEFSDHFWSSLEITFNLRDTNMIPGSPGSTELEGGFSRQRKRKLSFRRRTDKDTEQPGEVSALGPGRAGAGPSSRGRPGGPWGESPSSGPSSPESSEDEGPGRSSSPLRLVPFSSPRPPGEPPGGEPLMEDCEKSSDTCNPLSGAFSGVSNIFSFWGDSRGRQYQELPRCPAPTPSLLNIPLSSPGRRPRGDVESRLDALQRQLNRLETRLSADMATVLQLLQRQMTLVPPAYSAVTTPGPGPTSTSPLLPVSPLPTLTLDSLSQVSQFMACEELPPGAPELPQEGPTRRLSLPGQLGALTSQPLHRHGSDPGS

Ki [1] [nM] | Ki [2] [nM] | Ki (D(2) dopamine receptor) [nM] | Ki [4] [nM] | inhibition [5] [%] | SMILES | inhibition at 1 µM [3] [%]
33 | 61 | 49 | 8.1 |  | O=S(=O)(NCCCCN1CCN(c2nsc3ccccc23)CC1)c1ccc2cc(Cl)ccc2c1 | 12
0.8 | 32 | 1 | 2.8 | -7 | O=S(=O)(NCCCN1CCC(c2noc3cc(F)ccc23)CC1)c1ccc2ccccc2c1 | 63
1.1 | 87 | 44 | 26 | -3 | Cc1cccc(S(=O)(=O)NCCCCN2CCN(c3noc4ccccc34)CC2)c1 | 27
4.1 | 40 | 11 | 0.9 | 13 | O=S(=O)(NCCCN1CCC(c2noc3cc(F)ccc23)CC1)c1cc2ccccc2s1 | 34
10 | 1500 | 2000 | 4200 |  | Cc1cccc(S(=O)(=O)NCCCN2CCN(c3noc4ccccc34)CC2)c1 | 8
2.6 | 17 | 46 | 7.4 | -4 | Cc1c(S(=O)(=O)NCCCCN2CCN(c3noc4ccccc34)CC2)sc2ccc(F)cc12 | 29
3.2 | 42 | 3.2 | 5.5 | 1 | O=S(=O)(NCCCCN1CCN(c2nsc3ccccc23)CC1)c1cccs1 | 40
15 | 23 | 64 | 3.6 | -6 | O=S(=O)(NCCCCN1CCC(c2noc3cc(F)ccc23)CC1)c1ccc(OC(F)(F)F)cc1 | 73
4.4 | 48 | 26 | 9 | 18 | O=S(=O)(NCCCCN1CCC(c2noc3cc(F)ccc23)CC1)c1ccc(F)c(Cl)c1 | 90
1.1 | 210 | 20 | 3.5 | 0 | Cc1cccc(S(=O)(=O)NCCN2CCC(c3noc4cc(F)ccc34)CC2)c1 | 42
9.5 | 5.1 | 37 | 14 |  | O=S(=O)(NCCCN1CCN(c2nsc3ccccc23)CC1)c1ccc(F)c(Cl)c1 | 36
1.5 | 40 | 2.2 | 10 | 0 | O=S(=O)(NCCCN1CCN(c2nsc3ccccc23)CC1)c1ccc2ccccc2c1 | 13
13 | 70 | 25 | 8.5 |  | O=S(=O)(NCCCCN1CCC(c2noc3cc(F)ccc23)CC1)c1cccc2scnc12 | 69
0.4 | 133 | 5.2 | 1.8 | -2 | O=S(=O)(NCCN1CCC(c2noc3cc(F)ccc23)CC1)c1ccc2ccccc2c1 | 21
3.4 | 120 | 16 | 7.5 | 0 | O=S(=O)(NCCCCN1CCN(c2nsc3ccccc23)CC1)c1cccc2scnc12 | 34
0.5 | 83 | 4 | 1.7 | -9 | O=S(=O)(NCCCN1CCC(c2noc3cc(F)ccc23)CC1)c1cccc2ccccc12 | 27
6.7 | 18 | 51 | 7.7 |  | O=S(=O)(NCCCCN1CCN(c2noc3ccccc23)CC1)c1ccc2cc(Cl)ccc2c1 | 9

Ki [1] [nM] | Ki [2] [nM] | Ki (D(2) dopamine receptor) [nM] | Ki [4] [nM] | inhibition [5] [%] | SMILES | inhibition at 1 µM [3] [%]
200 | > 10000 | > 10000 | 1200 |  | Cc1c(S(=O)(=O)NCCCN2CCN(c3noc4ccccc34)CC2)sc2ccc(F)cc12 | 15
6.3 | 130 | > 1000 | 9.5 | 24 | O=S(=O)(NCCCCN1CCC(c2noc3cc(F)ccc23)CC1)c1cccs1 | 53
0.9 | 66 | 8.7 | 5.1 |  | O=S(=O)(NCCCN1CCC(c2noc3cc(F)ccc23)CC1)c1cccs1 | 53
20 | 15 | 7.8 | 25 |  | O=S(=O)(NCCCN1CCN(c2nsc3ccccc23)CC1)c1ccc(Cl)c(Cl)c1 | 21
3.8 | 430 | 43 | 8.8 |  | Cc1cccc(S(=O)(=O)NCCN2CCN(c3nsc4ccccc34)CC2)c1 | 4
270 | 4800 | 400 | 210 |  | O=S(=O)(NCCCCN1CCN(c2noc3ccccc23)CC1)c1ccc(OC(F)(F)F)cc1 | 24
0.7 | 29 | 57 | 10 |  | O=S(=O)(NCCCCN1CCN(c2noc3ccccc23)CC1)c1ccc(Cl)c(Cl)c1 | 24
94 | > 10000 |  | 970 | 4 | O=S(=O)(NCCCN1CCN(c2noc3ccccc23)CC1)c1cccs1 | 18
13 | 63 | 48 | 11 |  | O=S(=O)(NCCCN1CCN(c2nsc3ccccc23)CC1)c1cc2ccccc2s1 | 12
54 | 110 |  | 9.5 | -6 | O=S(=O)(NCCCN1CCN(c2nsc3ccccc23)CC1)c1cc2ccc(Cl)cc2s1 | 0
23 | 140 | 56 | 9.1 |  | O=S(=O)(NCCCN1CCN(c2nsc3ccccc23)CC1)c1cccs1 | 33
1.5 | 680 | 18 | 0.9 |  | O=S(=O)(NCCN1CCN(c2nsc3ccccc23)CC1)c1ccc2ccccc2c1 | 0
57 | > 10000 | 170 | 6100 |  | O=S(=O)(NCCCCN1CCN(c2noc3ccccc23)CC1)c1cccc2scnc12 | 26
1.7 | 22 | 13 | 1.3 |  | Cc1cccc(S(=O)(=O)NCCCN2CCN(c3nsc4ccccc34)CC2)c1 | 14
29 | 56 | 27 | 9.5 |  | O=S(=O)(NCCCN1CCN(c2nsc3ccccc23)CC1)c1ccc(OC(F)(F)F)cc1 | 50
8.8 | 35 | 33 | 3.8 |  | O=S(=O)(NCCCN1CCC(c2noc3cc(F)ccc23)CC1)c1ccc(OC(F)(F)F)cc1 | 87
19 | 47 | 48 | 2.2 |  | O=S(=O)(NCCCCN1CCN(c2nsc3ccccc23)CC1)c1ccc(OC(F)(F)F)cc1 | 20

Reference: ChEMBL document CHEMBL3286108, “Novel arylsulfonamide derivatives with 5-HT₆/5-HT₇ receptor antagonism targeting behavioral and psychological symptoms of dementia” (J Med Chem, 2014)
